Assay [1] has as its target SaTyrA1. The conditions noted are these: competitive model; 500 µM arogenate, 1 mM NADP+, pH 7.5, 37 °C.
In assay [2] the target is JaTyrA1. Particulars: competitive model; 500 µM arogenate, 1 mM NADP+, pH 7.5, 37 °C.
For assay [3], the target named is AcTyrA1. The conditions noted are these: competitive model; 500 µM arogenate, 1 mM NADP+, pH 7.5, 37 °C.
For assay [4], the target named is JaTyrAnc. Particulars: competitive model; 500 µM arogenate, 1 mM NADP+, pH 7.5, 37 °C.
For assay [5], the target named is AcTyrAnc. The conditions noted are these: competitive model; 500 µM arogenate, 1 mM NADP+, pH 7.5, 37 °C.
The target in assay [6] is T1, OsTyrA1 (Oryza sativa, UniProt Q5Z9H5).
T1 sequence (Q5Z9H5 46-353): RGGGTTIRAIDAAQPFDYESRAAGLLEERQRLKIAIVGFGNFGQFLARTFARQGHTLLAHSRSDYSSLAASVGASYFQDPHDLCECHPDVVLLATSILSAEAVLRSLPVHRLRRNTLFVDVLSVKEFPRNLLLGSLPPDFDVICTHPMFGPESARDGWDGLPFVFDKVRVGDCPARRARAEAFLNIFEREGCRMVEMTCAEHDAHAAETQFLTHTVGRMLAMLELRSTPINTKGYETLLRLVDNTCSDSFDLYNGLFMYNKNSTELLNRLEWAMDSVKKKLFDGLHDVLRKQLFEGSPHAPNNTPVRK
Particulars: competitive model; 500 µM arogenate, 1 mM NADP+, pH 7.5, 37 °C.

Assay [7] has as its target T2, ZmTyrAnc (Zea mays, UniProt C0PK73).
T2 sequence (C0PK73 50-392): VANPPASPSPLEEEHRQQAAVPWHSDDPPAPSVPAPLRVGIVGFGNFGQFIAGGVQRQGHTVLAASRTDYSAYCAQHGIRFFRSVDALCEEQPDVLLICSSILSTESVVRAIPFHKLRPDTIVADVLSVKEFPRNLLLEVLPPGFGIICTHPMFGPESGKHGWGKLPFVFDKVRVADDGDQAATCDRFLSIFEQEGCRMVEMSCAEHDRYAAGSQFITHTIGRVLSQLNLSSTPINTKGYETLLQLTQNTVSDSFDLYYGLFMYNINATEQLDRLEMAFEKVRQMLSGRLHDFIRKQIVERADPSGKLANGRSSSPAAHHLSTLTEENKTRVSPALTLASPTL
The conditions noted are these: competitive model; 500 µM arogenate, 1 mM NADP+, pH 7.5, 37 °C.

In assay [8] the target is SaTyrAnc. The conditions noted are these: competitive model; 500 µM arogenate, 1 mM NADP+, pH 7.5, 37 °C.
Assay [9] has as its target T3, OsTyrAnc (Oryza sativa, UniProt Q5Z6Y1).
T3 sequence (Q5Z6Y1 50-342): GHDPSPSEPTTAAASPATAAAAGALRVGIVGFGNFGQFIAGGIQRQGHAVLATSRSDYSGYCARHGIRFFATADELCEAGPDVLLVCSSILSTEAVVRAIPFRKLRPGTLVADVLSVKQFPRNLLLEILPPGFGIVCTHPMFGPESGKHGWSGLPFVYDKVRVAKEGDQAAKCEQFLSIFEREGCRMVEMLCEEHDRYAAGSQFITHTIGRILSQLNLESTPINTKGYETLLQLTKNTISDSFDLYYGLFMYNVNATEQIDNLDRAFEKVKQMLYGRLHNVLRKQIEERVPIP
Particulars: competitive model; 500 µM arogenate, 1 mM NADP+, pH 7.5, 37 °C.

Assay [10] deals with T3, OsTyrAnc. The conditions noted are these: read-out: IC50 (µM Tyr); 500 uM arogenate, 1 mM NADP+; inhibitor.
For assay [11], the target named is T2, ZmTyrAnc. Particulars: read-out: IC50 (µM Tyr); 500 uM arogenate, 1 mM NADP+; inhibitor.
Assay [12] has as its target T1, OsTyrA1. The conditions noted are these: read-out: IC50 (µM Tyr); 500 uM arogenate, 1 mM NADP+; inhibitor.
The subject of assay [13] is AcTyrA1. As to the kind of experiment: NADPH formation at […] nm, Michaelis-Menten fit. It counts as biochemical, Ananas comosus. Particulars: 1 mM NADP+, 50 mM HEPES pH 7.5, 50 mM KCl, 37 °C.
Assay [14] deals with JaTyrAnc. As to the kind of experiment: NADPH formation at […] nm, Michaelis-Menten fit. Format: biochemical, Joinvillea ascendens. Particulars: 1 mM NADP+, 50 mM HEPES pH 7.5, 50 mM KCl, 37 °C.
For assay [15], the system named is JaTyrA1. Description: NADPH formation at […] nm, Michaelis-Menten fit. It counts as biochemical, Joinvillea ascendens. Particulars: 1 mM NADP+, 50 mM HEPES pH 7.5, 50 mM KCl, 37 °C.
For assay [16], the system named is SaTyrA1. Description: NADPH formation at […] nm, Michaelis-Menten fit. The conditions noted are these: 1 mM NADP+, 50 mM HEPES pH 7.5, 50 mM KCl, 37 °C. Format: biochemical, Streptochaeta angustifolia.
Assay [17] relates to SaTyrAnc. As to the kind of experiment: NADPH formation at […] nm, Michaelis-Menten fit. It counts as biochemical, Streptochaeta angustifolia. Particulars: 1 mM NADP+, 50 mM HEPES pH 7.5, 50 mM KCl, 37 °C.
The test system of assay [18] is AcTyrAnc. As to the kind of experiment: NADPH formation at […] nm, Michaelis-Menten fit. Particulars: 1 mM NADP+, 50 mM HEPES pH 7.5, 50 mM KCl, 37 °C. Format: biochemical, Ananas comosus.

Structures are written as SMILES.

As for `N[C@@H](Cc1ccc(O)cc1)C(=O)O` [tyrosine], the Ki at SaTyrA1 [1] was found to be 34 ± 23 µM; at JaTyrA1 [2] it was 24 ± 4 µM; on AcTyrA1 [3] it was 12 ± 6 µM; on JaTyrAnc [4] it was 106 ± 19 µM; at AcTyrAnc [5], 76 ± 30 µM; at OsTyrA1 [6] it was 21 ± 2 µM. Also, the Ki at ZmTyrAnc [7] is 352 ± 13 µM; on SaTyrAnc [8], 35 ± 8 µM; at OsTyrAnc [9], 78 ± 19 µM. The IC50 at OsTyrAnc [10] worked out at 280 ± 70 µM; at ZmTyrAnc [11] it was 850 ± 30 µM; at OsTyrA1 [12], 53 ± 5 µM.
Turning to `N[C@@H](CC1(C(=O)O)C=CC(O)C=C1)C(=O)O` (stereo partly drawn) [arogenate], the Km was 750 ± 80 µM in the assay on AcTyrA1 [13]; 1900 ± 240 µM with JaTyrAnc [14]; 730 ± 60 µM in the assay with JaTyrA1 [15]; 720 ± 90 µM in the assay on SaTyrA1 [16]; 350 ± 20 µM in the assay on SaTyrAnc [17]; 1050 ± 170 µM in the assay on AcTyrAnc [18].

These data come from publication doi:10.1101/2025.06.05.658145v1 (biorxiv, 2025).
